Measurements from ChEMBL document CHEMBL1201862, “PubChem BioAssay data set” (2004).
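48-hour exposure; five concentrations; linearly interpolated endpoints. GI50 is the concentration that inhibits growth by half.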 Calls of active or inactive are those of the source. Rule as the data show it: active = GI50 up to about 1.1 µM and inactive = higher.

Assays:
Experiment in all cases: growth of human tumour cells (NCI), 48 h
786-0 = system: 786-0
A549 = system: A549
ACHN = system: ACHN
COLO 205 = system: COLO 205
EKVX = system: EKVX
HCT-116 = system: HCT-116
HOP-62 = system: HOP-62
HT-29 = system: HT-29
KM12 = system: KM12
LOX IMVI = system: LOX IMVI
MDA-MB-435 = system: MDA-MB-435
MOLT-4 = system: MOLT-4
NCI-H460 = system: NCI-H460
OVCAR-3 = system: OVCAR-3
OVCAR-4 = system: OVCAR-4
OVCAR-8 = system: OVCAR-8
PC-3 = system: PC-3
SF-268 = system: SF-268
UO-31 = system: UO-31
T47D = system: T47D

Compound	GI50 (786-0)	GI50 (A549)	GI50 (ACHN)	GI50 (COLO 205)	GI50 (EKVX)	GI50 (HCT-116)	GI50 (HOP-62)	GI50 (HT-29)	GI50 (KM12)	GI50 (LOX IMVI)	GI50 (MDA-MB-435)	GI50 (MOLT-4)	GI50 (NCI-H460)	GI50 (OVCAR-3)	GI50 (OVCAR-4)	GI50 (OVCAR-8)	GI50 (PC-3)	GI50 (SF-268)	GI50 (UO-31)	GI50 (T47D)
CCOC(CN(C)C(=O)OCC(Cl)(Cl)Cl)OCC	> 100 µM (inactive)	> 100 µM (inactive)	99.1 µM (inactive)	27.7 µM (inactive)	> 100 µM (inactive)	41.5 µM (inactive)	> 100 µM (inactive)	79.1 µM (inactive)	> 100 µM (inactive)	57.9 µM (inactive)	> 100 µM (inactive)	29.3 µM (inactive)	61.5 µM (inactive)	> 100 µM (inactive)	77.1 µM (inactive)	> 100 µM (inactive)	23.3 µM (inactive)	> 100 µM (inactive)	27.6 µM (inactive)	
CCOP(=O)(OCC)/C(C#N)=C/c1cnc(-c2ccccc2)[nH]1	> 100 µM (inactive)	> 100 µM (inactive)	> 100 µM (inactive)	> 100 µM (inactive)	> 100 µM (inactive)	> 100 µM (inactive)	> 100 µM (inactive)	> 100 µM (inactive)	> 100 µM (inactive)	> 100 µM (inactive)	24.7 µM (inactive)	> 100 µM (inactive)	> 100 µM (inactive)	> 100 µM (inactive)	> 100 µM (inactive)	> 100 µM (inactive)	> 100 µM (inactive)	> 100 µM (inactive)	> 100 µM (inactive)	
CN(Cc1cnc2c(n1)C(N)=NN(N)N2)c1ccc(C(=O)NC(CCP(=O)(O)O)C(=O)O)cc1 (configuration not stated)	1.86 µM (inactive)	2.43 µM (inactive)	2.17 µM (inactive)	> 31.5 µM (inactive)	> 43.3 µM (inactive)	0.45 µM (active)	> 100 µM (inactive)	9.51 µM (inactive)	5.14 µM (inactive)	0.637 µM (active)	3.95 µM (inactive)	5.42 µM (inactive)	1.87 µM (inactive)	> 100 µM (inactive)	> 100 µM (inactive)	> 36.2 µM (inactive)		1.21 µM (inactive)	> 19.9 µM (inactive)	> 100 µM (inactive)
CCN(CC)c1ccc2cc(C(=O)Nc3ccccn3)c(=N)oc2c1	35.3 µM (inactive)	> 100 µM (inactive)	26.9 µM (inactive)	> 100 µM (inactive)	> 100 µM (inactive)	55.5 µM (inactive)	22.9 µM (inactive)	32.2 µM (inactive)	> 100 µM (inactive)	71.1 µM (inactive)	> 100 µM (inactive)	> 100 µM (inactive)	> 100 µM (inactive)	> 100 µM (inactive)	> 100 µM (inactive)	36.3 µM (inactive)		60.8 µM (inactive)		99.8 µM (inactive)
COc1cc(/C=N/N=C(\N)NO)c([N+](=O)[O-])cc1OC	29.9 µM (inactive)	26.3 µM (inactive)	14.8 µM (inactive)	36.1 µM (inactive)	18.1 µM (inactive)	28.6 µM (inactive)	52.7 µM (inactive)	30.1 µM (inactive)	44.4 µM (inactive)	24.2 µM (inactive)		27.1 µM (inactive)	12.6 µM (inactive)	34 µM (inactive)	15.2 µM (inactive)	31.7 µM (inactive)		25.2 µM (inactive)	35.7 µM (inactive)	
NCCSC(c1ccccc1)c1ccccc1	17.5 µM (inactive)	39.3 µM (inactive)	31.8 µM (inactive)	23.7 µM (inactive)	30.7 µM (inactive)	16.7 µM (inactive)	17.5 µM (inactive)	17.7 µM (inactive)	19.7 µM (inactive)	16.3 µM (inactive)	19.1 µM (inactive)	15.7 µM (inactive)	15.1 µM (inactive)	19.1 µM (inactive)	20.4 µM (inactive)	20.6 µM (inactive)	21.8 µM (inactive)	26.6 µM (inactive)	15 µM (inactive)	
CC(=O)Nc1ccc(C2CC(c3ccc([N+](=O)[O-])cc3)=Nc3ccccc3S2)cc1 (configuration not stated)	17.4 µM (inactive)	20.6 µM (inactive)	16.6 µM (inactive)	36.8 µM (inactive)	36.8 µM (inactive)	9.75 µM (inactive)	17.1 µM (inactive)	15.4 µM (inactive)	13.9 µM (inactive)	15.5 µM (inactive)		11.8 µM (inactive)	17.3 µM (inactive)	23.2 µM (inactive)	19.7 µM (inactive)	16.6 µM (inactive)		24 µM (inactive)	13.8 µM (inactive)	
CC(C)c1cc(C(C)C)c(S(=O)(=O)N/N=C2\CC3CCC2(C)C3(C)C)c(C(C)C)c1 (configuration not stated)	28.4 µM (inactive)	23.6 µM (inactive)	15 µM (inactive)	12.9 µM (inactive)	11 µM (inactive)	17.8 µM (inactive)	74.8 µM (inactive)	14.1 µM (inactive)	36.1 µM (inactive)		34.8 µM (inactive)	6.68 µM (inactive)		33.7 µM (inactive)	29 µM (inactive)	> 100 µM (inactive)	18.3 µM (inactive)	34.9 µM (inactive)	30.4 µM (inactive)	11.8 µM (inactive)
O=C(O)C(=O)/C=C\c1ccc(Cl)cc1	> 100 µM (inactive)	> 100 µM (inactive)	> 100 µM (inactive)	> 100 µM (inactive)	> 100 µM (inactive)	> 100 µM (inactive)	> 100 µM (inactive)	> 100 µM (inactive)	> 100 µM (inactive)	> 100 µM (inactive)		> 100 µM (inactive)	> 100 µM (inactive)	> 100 µM (inactive)	> 100 µM (inactive)	> 100 µM (inactive)		> 100 µM (inactive)	> 100 µM (inactive)	
O=C(/C=C/c1ccccc1)/C=N/N1C(=S)N(c2ccccc2)C(=N\c2ccccc2)/C1=N/c1ccccc1	> 100 µM (inactive)	> 100 µM (inactive)	> 100 µM (inactive)	> 100 µM (inactive)	> 100 µM (inactive)	43.1 µM (inactive)	> 100 µM (inactive)	> 100 µM (inactive)	> 100 µM (inactive)			> 100 µM (inactive)	58.7 µM (inactive)	> 100 µM (inactive)		> 100 µM (inactive)	> 100 µM (inactive)	> 100 µM (inactive)	> 100 µM (inactive)	> 100 µM (inactive)
O=C1NC(O)c2ccccc2O1 (configuration not stated)	> 100 µM (inactive)	> 100 µM (inactive)	> 100 µM (inactive)	> 100 µM (inactive)	> 100 µM (inactive)	> 100 µM (inactive)	> 100 µM (inactive)	> 100 µM (inactive)	> 100 µM (inactive)	> 100 µM (inactive)	> 100 µM (inactive)	> 100 µM (inactive)	> 100 µM (inactive)	> 100 µM (inactive)	> 100 µM (inactive)	> 100 µM (inactive)	> 100 µM (inactive)	> 100 µM (inactive)	> 100 µM (inactive)	
CO/N=C(\C(=O)Nc1cncs1)c1csc(NC(c2ccccc2)(c2ccccc2)c2ccccc2)n1	> 10 µM (inactive)	3.84 µM (inactive)	> 10 µM (inactive)	> 10 µM (inactive)	6.12 µM (inactive)	5 µM (inactive)	> 10 µM (inactive)	4.63 µM (inactive)	9.4 µM (inactive)	7.21 µM (inactive)		3.31 µM (inactive)	4.56 µM (inactive)	> 10 µM (inactive)	> 10 µM (inactive)	> 10 µM (inactive)	4.38 µM (inactive)	9.79 µM (inactive)	4.37 µM (inactive)	6.52 µM (inactive)
Cc1[nH]c2ccccc2c1C1Cc2ccccc2N1C(=O)/C=C/C(=O)O (configuration not stated)	> 100 µM (inactive)	> 100 µM (inactive)	> 100 µM (inactive)	> 100 µM (inactive)	> 100 µM (inactive)	> 100 µM (inactive)	> 100 µM (inactive)	> 100 µM (inactive)	> 100 µM (inactive)	> 100 µM (inactive)		> 100 µM (inactive)	20 µM (inactive)	> 100 µM (inactive)	> 100 µM (inactive)	> 100 µM (inactive)		> 100 µM (inactive)	> 100 µM (inactive)	
ClC(Cl)(Cl)C1CCOC1n1nnc2ccccc21 (configuration not stated)	> 100 µM (inactive)	63 µM (inactive)		> 100 µM (inactive)	> 100 µM (inactive)	92.9 µM (inactive)	> 100 µM (inactive)	73.5 µM (inactive)			> 100 µM (inactive)	21.9 µM (inactive)		> 100 µM (inactive)		> 100 µM (inactive)	> 100 µM (inactive)	> 100 µM (inactive)		> 100 µM (inactive)
O=C(CC(C(=O)c1ccc(F)cc1)c1ccsc1)c1cccs1 (configuration not stated)	> 100 µM (inactive)	74.8 µM (inactive)	> 100 µM (inactive)	> 100 µM (inactive)	68.9 µM (inactive)	60.5 µM (inactive)	> 100 µM (inactive)	59.2 µM (inactive)	44.8 µM (inactive)		> 100 µM (inactive)	29.6 µM (inactive)	69.7 µM (inactive)		94.8 µM (inactive)	> 100 µM (inactive)	57.9 µM (inactive)	> 100 µM (inactive)	25.2 µM (inactive)	26.7 µM (inactive)
